Results on two molecules are retold here after patent US20170189474A1, “ANTIFUNGAL THERAPY FOR THE TREATMENT OF HIRSCHSPRUNG-ASSOCIATED ENTEROCOLITIS” (Cedars-Sinai Medical Center, priority 2014, published 2017).

Molecules are shown by their SMILES.

This experiment has as its system 129SvEdnrb−/− (KO) mice with colonic aganglionosis. Briefly: Histological enterocolitis scoring after medicated water treatment in murine model of HAEC. Format: in vivo, mouse. Conditions: Ednrb−/− (KO) mice, antifungal only in drinking water, vs untreated KO; trend, did not reach significance. The text has this: Regular water treated KO mice (KO_H2O) and their wild type littermates (WT_H2O) were used as untreated control. […] The total enterocolitis score of each treatment was compared with KO_H2O by using unpaired two-tailed Student's t-test. Results are shown as Mean±SEM, *P<0.05; **P<0.01. We test antibiotic and antifungal agents and their combinations on the 129sv/Ednrb mouse strain shown to be a model of HAEC. The experimental groups and protocol are described below: Medicated water which contains enrofloxacin (Baytril), metronidazole, vancomycin, natamycin ([…]), fluconazole, and/or […] (Isavuconazole sulfate) are administered to pregnant mice from the time that the pregnancy is noted, through weaning of the pups. In other words, the administration of medicated water to moms are stopped after weaning, and then continued with the weaned pups. Six groups of animals (129sv/Ednrb-null mouse strain, n=5-8 per group) with different treatment are described as below. The dosage was calculated by the concentration of antibiotic and antifungal agents and assuming a mouse taking 5 ml water per day based on published data. Group 1. […] Significant changes in makeup between the samples will be verified by quantitative PCR. […]

`C[C@@H]1C/C=C/C=C/C=C/C=C/[C@H](O[C@@H]2O[C@H](C)[C@@H](O)[C@H](N)[C@@H]2O)C[C@@H]2O[C@](O)(C[C@@H](O)C[C@H]3O[C@@H]3/C=C/C(=O)O1)C[C@H](O)[C@H]2C(=O)O` [AFX1, natamycin]: the “reduction of mean enterocolitis score” value was 42%.

In the case of `OC(Cn1cncn1)(Cn1cncn1)c1ccc(F)cc1F` [AFX2, fluconazole], the “reduction of mean enterocolitis score” value came out at 34%.
